Molecular target: T1, BumS (WT BumS-Myc-6XHis) (Campylobacter jejuni, UniProt Z9AJU0DEG1)
T1 construct: gene CJJ81176_1484; second to penultimate codon, C-terminal Myc-6XHis tag kept (pBAD/Myc-HisA, pNR251), expressed in E. coli TOP10; cytoplasmic, N-terminal PAS domain (about residues 1-120)
T1 sequence (Z9AJU0DEG1 2-403): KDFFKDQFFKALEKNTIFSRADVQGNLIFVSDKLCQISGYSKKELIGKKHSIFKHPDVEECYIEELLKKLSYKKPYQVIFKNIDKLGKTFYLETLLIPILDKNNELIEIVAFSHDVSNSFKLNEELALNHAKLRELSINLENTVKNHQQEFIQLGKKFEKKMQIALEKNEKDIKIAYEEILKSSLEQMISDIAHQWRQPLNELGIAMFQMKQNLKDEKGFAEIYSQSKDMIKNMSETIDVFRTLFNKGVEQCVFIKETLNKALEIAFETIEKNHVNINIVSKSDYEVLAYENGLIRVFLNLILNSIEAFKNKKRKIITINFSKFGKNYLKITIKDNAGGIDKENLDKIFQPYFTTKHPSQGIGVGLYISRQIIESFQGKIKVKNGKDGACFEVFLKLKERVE
Assay: CD thermal melt at […] nm
Assay type: binding
Settings: […]; […] HEPES, […] NaSO4, […] glycerol; […]-95 °C

CC(C)C(=O)O [isobutyrate]
Tm,app: isobutyrate and isovalerate had a net destabilizing effect on the thermostability of BumS

From publication PMC11796366 (mBio, 2024)
